Non-standard residues stand in square brackets, D forms with d. Residues, ends and D or L forms follow the SMILES beside them. pGlu = O=C1CC[C@@H](C(=O)O)N1
Legend:
pituitary gland [1] = test system: pituitary gland
[2] = test system: dispersed rat pituitary cells; experiment: In vitro suppression of LRF-generated LH secretion in dispersed rat pituitary cell culture; assay type: cell-based; settings: molar ratio of peptide to LRF; culture inoculated with 3×10^-5 M of LRF
Procedure: (§1) Using the above method, the peptide compositions set forth below in Tables I and II were prepared. The peptide compositions were assayed in vitro and in vivo. The in vitro assay was made using a 5 day old primary culture of dispersed rat pituitary cells. The LH secreted in response to the peptide compositions was assayed by specific radioimmunoassay for rat LH. The peptide compositions were applied to the culture at a level of 3×10^-5 M. The potency of these peptide compositions which stimulate secretion of gonadotropins is expressed in terms of percent LRF potency wherein LRF has a potency of 100. For those peptide compositions which are antagonistic to secretion of gonadotropins, the culture was inoculated with 3×10^-5 M of LRF and the molar ratio of the peptide required to suppress secretion of LH generated by the LRF was determined.

rats [3] = experiment: In vivo suppression of LH secretion generated by injected LRF in rats; parameters: species or system rat; settings: molar ratio of peptide to LRF; rats injected with 100 nanograms of LRF
Procedure: (§2) The effectiveness of the peptide compositions which stimulate secretion of gonadotropins was determined in vivo by intravenous injection of 100 nanograms of the peptide into rats. The rats were chronically ovariectomized and were treated with estrogen and progesterone prior to assay. The LH level was determined in plasma by solid phase radioimmunoassay for rat LH. For those peptide compositions which are antagonistic to secretion of gonadotropins, the rats were injected with 100 nanograms of LRF and the molar ratio of the peptide required to suppress section of LH generated by the LRF was determined.

pituitary gland [4] = experiment: Release of gonadotropins after administration to a mammal; assay type: in vivo; settings: 500 nanograms per kilogram of body weight
pituitary gland [5] = experiment: Inhibition of release of gonadotropins by the pituitary gland (test not given); parameters: species or system mammalians; settings: relative to Gly6 peptide
[6] = test system: dispersed rat pituitary cells; experiment: In vitro LH secretion by primary culture of dispersed rat pituitary cells (stimulation), rat LH radioimmunoassay; assay type: cell-based; settings: peptide applied to culture at 3×10^-5 M; LRF has a potency of 100
Procedure: as §1

rats [7] = experiment: In vivo plasma LH after intravenous injection into ovariectomized, estrogen/progesterone-treated rats; parameters: species or system rat; settings: intravenous injection of 100 nanograms of peptide, LRF = 100
Procedure: as §2

Compound | percent potency for effecting release of luteinizing hormone (compared to the LRF decapeptide) (pituitary gland [1]) [%] | Molar ratio necessary to produce inhibition In Vitro [2] | Molar ratio necessary to produce inhibition In Vivo (rats [3]) | other results
CC(C)C[C@H](NC(=O)[C@@H](CC(C)C)NC(=O)[C@H](Cc1ccc(O)cc1)NC(=O)[C@H](CO)NC(=O)[C@H](Cc1c[nH]c2ccccc12)NC(=O)[C@H](Cc1c[nH]cn1)NC(=O)[C@@H]1CCC(=O)N1)C(=O)N[C@@H](CCCNC(=N)N)C(=O)N1CCC[C@H]1C(=O)NCC(N)=O [D-Leu for Gly] | 60 |  |  | 
CC(C)C[C@H](NC(=O)[C@H]1CCCN1C(=O)[C@H](Cc1ccc(O)cc1)NC(=O)[C@H](CO)NC(=O)[C@H](Cc1c[nH]c2ccccc12)NC(=O)[C@H](Cc1c[nH]cn1)NC(=O)[C@@H]1CCC(=O)N1)C(=O)N[C@@H](CCCNC(=N)N)C(=O)N1CCC[C@H]1C(=O)NCC(N)=O [D-Pro] | 10 |  |  | 
CC(C)C[C@H](NC(=O)[C@H](NC(=O)[C@H](Cc1ccc(O)cc1)NC(=O)[C@H](CO)NC(=O)[C@H](Cc1c[nH]c2ccccc12)NC(=O)[C@H](Cc1c[nH]cn1)NC(=O)[C@@H]1CCC(=O)N1)C(C)C)C(=O)N[C@@H](CCCNC(=N)N)C(=O)N1CCC[C@H]1C(=O)NCC(N)=O [D-Val for Gly] | 30 |  |  | 
CC(C)C[C@H](NC(=O)[C@H](C)NC(=O)[C@H](Cc1ccc(O)cc1)NC(=O)[C@H](CO)NC(=O)[C@H](Cc1c[nH]c2ccccc12)NC(=O)[C@H](Cc1c[nH]cn1)NC(=O)[C@@H]1CCC(=O)N1)C(=O)N[C@@H](CCCNC(=N)N)C(=O)N1CCC[C@H]1C(=O)NCC(N)=O [L-Ala for Gly in the 6-position of LRF] | 3 |  |  | 
CCNC(=O)[C@@H]1CCCN1C(=O)[C@H](CCCNC(=N)N)NC(=O)[C@H](CC(C)C)NC(=O)[C@@H](C)NC(=O)[C@H](Cc1ccc(O)cc1)NC(=O)[C@H](CO)NC(=O)[C@H](Cc1c[nH]c2ccccc12)NC(=O)CNC(=O)[C@@H]1CCC(=O)N1 [pGlu-Gly-Trp-Ser-Tyr-D-Ala-Leu-Arg-Pro-NHCH2 CH3] ([pGlu]GWSY[dA]LRP-NHEt) |  | 700 | 500 | 
CC(C)C[C@H](NC(=O)CNC(=O)[C@H](Cc1ccc(O)cc1)NC(=O)[C@H](CO)NC(=O)[C@H](Cc1c[nH]c2ccccc12)NC(=O)[C@H](Cc1c[nH]cn1)NC(=O)[C@@H]1CCC(=O)N1)C(=O)N[C@@H](CCCNC(=N)N)C(=O)N1CCC[C@H]1C(=O)NCC(N)=O [pGlu-His-Trp-Ser-Tyr-Gly-Leu-Arg-Pro-Gly-NH2] |  |  |  | release of gonadotropins by the pituitary gland (in words) (pituitary gland [4]): significant release of gonadotropins
CC(C)C[C@H](NC(=O)[C@@H](C)NC(=O)[C@H](Cc1ccc(O)cc1)NC(=O)[C@H](CO)NC(=O)[C@H](Cc1c[nH]c2ccccc12)NC(=O)[C@@H]1CCC(=O)N1)C(=O)N[C@@H](CCCNC(=N)N)C(=O)N1CCC[C@H]1C(=O)NCC(N)=O [pGlu-Trp-Ser-Tyr-D-Ala-Leu-Arg-Pro-Gly-NH2] ([pGlu]WSY[dA]LRPG-NH2) |  | 700 | 500 | times more potent as inhibitor for release of gonadotropins than the same peptide with Gly in the 6-position (pituitary gland [5]): 3 times
CC(C)C[C@H](NC(=O)CNC(=O)[C@H](Cc1ccc(O)cc1)NC(=O)[C@H](CO)NC(=O)[C@H](Cc1c[nH]c2ccccc12)NC(=O)[C@@H]1CCC(=O)N1)C(=O)N[C@@H](CCCNC(=N)N)C(=O)N1CCC[C@H]1C(=O)NCC(N)=O [pGlu-deleted-Trp-Ser-Tyr-Gly-Leu-Arg-Pro-Gly-NH2] ([pGlu]WSYGLRPG-NH2) |  | 2,000 | 3,000 | 
pGlu-His-Trp-Ser-Tyr-Gly-Leu-Arg-Pro-NHCH 2 CH3 |  |  |  | Percent LRF Potency In Vitro [6]: 1,500%; Percent LRF Potency In Vivo (rats [7]): 300%

Reference: patent publication US4072668A, “LH-RH Analogs” (The Salk Institute for Biological Studies, priority 1974, dated 1978)
